Source: patent US7358255B2, “Therapeutic agent for keratoconjunctival disorder” (Santen Pharmaceutical Co., Ltd., priority 2003, dated 2008)

Legend:
[1] = hydrochloride compared with free form; cited from earlier work
[2] = hydrochloride compared with free form; cited from earlier work; remark: listed apart in the source
[3] = tested on: corneal damage in dry eye model (exorbital lacrimal gland removed); assay: Healing effect test for corneal damage (dry eye model, fluorescein staining score); type: in vivo, male SD rats
Description: Healing Effect Test for Corneal Damage Using male SD rats, a dry eye model was produced according to the method of Fujihara et al. (Invest. Ophthalmol. Vis. Sci 42 (1): 96-100 (2001)). After producing the dry eye model, cure rate of a corneal damage was determined according to the method of Miyata et al. (Japanese Review of Clinical Ophthalmology, 48 (2): 183-188 (1994)). A male SD rat was systemically anesthetized by an interperitoneal administration of Nembutal in an amount of 35 mg/kg. Subsequently, exorbital lacrimal gland was removed, and corneal damage was induced over two months. Next, a 0.01% solution of the present compound dissolved in a physiological saline solution was instilled into one eye, while the physiological saline solution (control) was instilled into the other eye, respectively, six times per day for 7 days. On day 7 after initiating the instillation, impaired part of the cornea was stained with fluorescein. Score of upper, middle and lower parts of the cornea were assessed according to the following criteria on the extent of staining by fluorescein, respectively. […] Similar test was also conducted on normal eyes as described above to determine the mean value of total scores on each part described above. 0: No punctate staining 1: Scattered staining (punctate, separated staining) 2: Moderate staining (a part of punctate staining being adjacent) 3: Heavy staining (punctate, barely separated staining) Improvement ratio of the 0.01% eye drop administration group of the present compound is shown in Table 1 calculated on the basis of the mean value of total scores of the aforementioned respective parts in the group (control) administered with a physiological saline solution eye drop as a standard value (improvement ratio: 0%), according to the following calculating formula. Mean value of the scores was obtained by averaging 8 examples in each case. [formula]

Row | SMILES | Oral absorptivity [1] | Solubility in comparison with the free form [2] | Improvement ratio (%) ([3]; 0.01% eye drop, six times per day for 7 days, calculated from mean total scores with saline control as 0%) | Mean value of total scores ([3]; fluorescein staining scores (0-3) of upper, middle and lower cornea summed, 0.01% solution in physiological saline instilled six times per day for 7 days, day 7, mean of 8, normal eye 2.9, control 6.1) | Improvement of the corneal damage (in words) ([3]; rat dry eye model, 0.01% eye drop)
1 | COc1ccc2nc(COc3ccc(CC4SC(=O)NC4=O)cc3)n(C)c2c1 (centres unmarked) [5-[4-(6-methoxy-1-methyl-1H-benzimidazol-2-ylmethoxy)benzyl]thiazolidine-2,4-dione] | excellent oral absorptivity | remarkable elevation of solubility |  |  | 
2 | COc1ccc2nc(COc3ccc(CC4SC(=O)NC4=O)cc3)n(C)c2c1 (centres unmarked) [Present compound, 5-[4-(6-methoxy-1-methyl-1H-benzimidazol-2-ylmethoxy)benzyl]thiazolidine-2,4-dione] |  |  | 53% | 4.4 | markedly improves the corneal damage
